This is an account of results in paper PMC6405874, “Development of a novel short 12-meric papiliocin-derived peptide that is effective against Gram-negative sepsis” (Scientific Reports, 2019).

No end group written: not given here.

Data set [1] concerns MDRAB 12035 (MDR A. baumannii CCARM 12035). To be noted: 1% peptone, 2 × 10^6 CFU/mL, 16 h, 37 °C. On the procedure:
(§1) The antimicrobial activities of Pap12 peptides were tested against four standard Gram-negative bacteria (E. coli, Pseudomonas aeruginosa, Acinetobacter baumannii, and Salmonella typhimurium), three standard Gram-positive bacteria (Staphylococcus aureus, Bacillus subtilis, and Staphylococcus epidermidis), and five MDR bacteria (MDREC CCARM 1229, MDRPA CCARM 2002, MDRAB CCARM 12035, MDRST CCARM 8007, and MRSA CCARM 3126) using the microbroth dilution method. The relative antibacterial activities were compared based on geometric means of MICs (GM).
(§2) Escherichia coli (KCTC 1682), Pseudomonas aeruginosa (KCTC 2004), Acinetobacter baumannii (KCTC 2508), Salmonella typhimurium (KCTC 1926), Bacillus subtilis (KCTC 3068), Staphylococcus aureus (KCTC 1621), and Staphylococcus epidermidis (KCTC 1917) were purchased from the Korean Collection for Type Cultures, Korea Research Institute of Bioscience & Biotechnology (Taejon, Korea). Clinical isolates of MDR E. coli (MDREC; CCARM 1229), P. aeruginosa (MDRPA; CCARM 2002), A. baumannii (MDRAB; CCARM 12035), S. typhimurium (MDRST; CCARM 8007), and S. aureus (MDRSA; CCARM 3126) were supplied by the Culture Collection of Antibiotic-Resistant Microbe (CCARM) at Seoul Women’s University in Korea. The E. coli K1 strain RS218 (O18:K1:H7) was kindly provided by Dr. Jang-Won Yoon of Kangwon National University (Gangwon-do, Korea).
(§3) Peptides were treated with 2 × 10^6 CFU/mL bacterial suspensions in 1% peptone media for 16 h at 37 °C.

The subject of data set [2] is MDRST 8007 (MDR S. typhimurium CCARM 8007). Conditions: 1% peptone, 2 × 10^6 CFU/mL, 16 h, 37 °C. On the procedure:
as §1, §2, §3

The test system of data set [3] is S. typhimurium (KCTC 1926). Conditions: 1% peptone, 2 × 10^6 CFU/mL, 16 h, 37 °C. On the procedure: as §1, §2, §3
The next data set deals with E. coli (KCTC 1682). Conditions: 1% peptone, 2 × 10^6 CFU/mL, 16 h, 37 °C. On the procedure:
as §1, §2, §3

For the next data set, the system named is MRSA 3126 (CCARM 3126). Conditions: 1% peptone, 2 × 10^6 CFU/mL, 16 h, 37 °C. As for the experimental part:
as §1, §2, §3

Data set [4] concerns P. aeruginosa (KCTC 2004). To be noted: 1% peptone, 2 × 10^6 CFU/mL, 16 h, 37 °C. As for the experimental part: as §1, §2, §3
Another data set has as its system B. subtilis (KCTC 3068). To be noted: 1% peptone, 2 × 10^6 CFU/mL, 16 h, 37 °C. As for the experimental part:
as §1, §2, §3

The subject of data set [5] is MDREC 1229 (MDR E. coli CCARM 1229). Conditions: 1% peptone, 2 × 10^6 CFU/mL, 16 h, 37 °C. As for the experimental part: as §1, §2, §3
Data set [6] has as its system MDRPA 2002 (MDR P. aeruginosa CCARM 2002). Conditions: 1% peptone, 2 × 10^6 CFU/mL, 16 h, 37 °C. As for the experimental part:
as §1, §2, §3

The next data set relates to A. baumannii (KCTC 2508). To be noted: 1% peptone, 2 × 10^6 CFU/mL, 16 h, 37 °C. On the procedure: as §1, §2, §3
The subject of a further data set is S. aureus (KCTC 1621). Conditions: 1% peptone, 2 × 10^6 CFU/mL, 16 h, 37 °C. As for the experimental part: as §1, §2, §3
In data set [7] the test system is S. epidermidis (KCTC 1917). To be noted: 1% peptone, 2 × 10^6 CFU/mL, 16 h, 37 °C. As for the experimental part: as §1, §2, §3
Data set [8] has as its system human red blood cells (hRBCs). Put plainly: Hemolysis of human red blood cells. As for the experimental part: (§4) The therapeutic index (TI) was calculated (Table 2) using HC10, the peptide concentration required to induce 10% hemolysis.
The toxicity of peptides to human red blood cells (hRBCs) was determined by measuring the peptide-induced release of haem, and percent hemolysis was calculated as described previously. The peptide-induced cytotoxicity of mouse RAW 264.7 macrophages, human keratinocyte HaCaT cells, and HEK-293 cells were determined by 3-(4,5-dimethylthiazol-2-yl)-2,5-diphenyltetrazolium bromide (MTT) assays as previously described.

Another data set relates to Gram-negative bacteria. Conditions: eight Gram-negative strains of Table 2. On the procedure:
as §1, §4, §3

The next data set relates to Gram-positive bacteria. Conditions: four Gram-positive strains of Table 2. As for the experimental part:
as §1, §4, §3

Data set [9] can be described thus: Survival of non-infected mice given peptide (acute toxicity). It counts as in vivo, BALB/c mice. To be noted: 10 mg/kg i.p., over 4 days, 10 mice.
Procedure: To determine the in vivo survival rate, four groups were established with 10 BALB/c mice per group. For the control group, 10 mice were given an intraperitoneal (i.p.) injection with PBS. […] In the third group, 10 mice were i.p. injected with Pap12-6 (10 mg/kg). […] Survival was evaluated for 4 days (0, 6, 12, 18, 24, 30, 36, 48, 60, 72, 84, and 96 h).
For data set [10], the system named is mouse macrophage RAW 264.7 cells. Put plainly: MTT cytotoxicity. The format is cell-based. To be noted: RAW 264.7, MTT. The text has this:
(§5) The toxicities of peptides against mammalian cells were checked by measuring the survival rate of mouse macrophage RAW 264.7 cells, human keratinocyte HaCaT cells, and HEK-293 human embryonic kidney epithelial (HEK-293) cells after treatment with different concentrations of peptides (Fig. 2B–D). […] Since melittin has higher hydrophobicity and a […] amphiphatic moment (µH) than those of Pap12 peptides, as listed in Table 1, its toxicity is much higher than those of Pap12 peptides.

The subject of data set [11] is HEK-293 human embryonic kidney epithelial cells. Put plainly: MTT cytotoxicity. It counts as cell-based. To be noted: HEK-293, MTT, 50 µM.
From the text: as §5

For data set [12], the system named is human keratinocyte HaCaT cells. Briefly: MTT cytotoxicity. Conditions: 50 µM. It counts as cell-based.
From the text: as §5

Turning to RWKIFKKVVKKW-NH2 [Pap12-6], the “Minimal inhibitory concentration (MIC), MDRAB 12035” value in [1] came to 4 µM. Besides, the “Minimal inhibitory concentration (MIC), MDRST 8007” value in [2] was 8 µM. In addition, in data set [3], the “Minimal inhibitory concentration (MIC), S. typhimurium” value was found to be 8 µM. Also, the “Minimal inhibitory concentration (MIC), E. coli” value in the data set on E. coli (KCTC 1682) was 4 µM. In the data set on MRSA 3126 (CCARM 3126), the “Minimal inhibitory concentration (MIC), MRSA 3126” value was 8 µM. Moreover, in data set [4], the “Minimal inhibitory concentration (MIC), P. aeruginosa” value was 4 µM. For the same substance, the “Minimal inhibitory concentration (MIC), B. subtilis” value with B. subtilis (KCTC 3068) is 8 µM. In data set [5], the “Minimal inhibitory concentration (MIC), MDREC 1229” value came out at 8 µM. Moreover, the “Minimal inhibitory concentration (MIC), MDRPA 2002” value in data set [6] turned out to be 8 µM. The “Minimal inhibitory concentration (MIC), A. baumannii” value in the data set with A. baumannii (KCTC 2508) was found to be 4 µM. Further, the “Minimal inhibitory concentration (MIC), S. aureus” value in the data set on S. aureus (KCTC 1621) came out at 4 µM. Besides, the “Minimal inhibitory concentration (MIC), S. epidermidis” value in [7] was determined as 8 µM. In addition, in [8], the “HC10, peptide concentration resulting in 10% hemolysis of fresh human erythrocytes” value turned out to be 100 µM. Also, the “GM, geometric mean of MICs, Gram-negative bacteria” value in the data set on Gram-negative bacteria turned out to be 6 µM. For the same substance, in the data set with Gram-positive bacteria, the “GM, geometric mean of MICs, Gram-positive bacteria” value is 7 µM. In data set [9], the “survival of non-infected mice (lack of acute toxicity)” value was “all mice survived”. The cell survival in data set [10] (50 µM) is given as 80%; in data set [10] (up to 25 µM), 100%. Further, the “cytotoxicity (in words)” value in data set [11] and in [12] was “no cytotoxicity” throughout.
